In ChEMBL document CHEMBL3046832, “Synthesis of some sulfonamides, disubstituted sulfonylureas or thioureas and some structurally related variants. A class of promising antitumor agents” (2007):

Experiments:
Format in all cases: functional
MDA-MB-435 = assay: Cytotoxicity against Homo sapiens (human) MDA-MB-435 cells after 48 hr by SRB assay; conditions: MDA-MB-435, 48 h
Hs-578T = assay: Cytotoxicity against Homo sapiens (human) Hs578T cells after 48 hr by SRB assay
MCF7 [1] = assay: Cytotoxicity against Homo sapiens (human) MCF7 cells after 48 hr by SRB assay; conditions: MCF7, 48 h
DU-145 = assay: Cytotoxicity against Homo sapiens (human) DU145 cells after 48 hr by SRB assay; conditions: DU-145, 48 h
UO-31 = assay: Cytotoxicity against Homo sapiens (human) UO31 cells after 48 hr by SRB assay; conditions: UO-31, 48 h
RXF 393 = assay: Cytotoxicity against Homo sapiens (human) RXF393 cells after 48 hr by SRB assay; conditions: RXF 393, 48 h
SN12C = assay: Cytotoxicity against Homo sapiens (human) SN12C cells after 48 hr by SRB assay
CAKI-1 = assay: Cytotoxicity against Homo sapiens (human) Caki1 cells after 48 hr by SRB assay; conditions: CAKI-1, 48 h
ACHN = assay: Cytotoxicity against Homo sapiens (human) ACHN cells after 48 hr by SRB assay
786-0 = assay: Cytotoxicity against Homo sapiens (human) 786-0 cells after 48 hr by SRB assay; conditions: 786-0, 48 h
[2] = Cytotoxicity against Homo sapiens (human) NCI-ADR-RES cells after 48 hr by SRB assay
SK-OV-3 = assay: Cytotoxicity against Homo sapiens (human) SKOV3 cells after 48 hr by SRB assay; conditions: SK-OV-3, 48 h
OVCAR-8 = assay: Cytotoxicity against Homo sapiens (human) OVCAR8 cells after 48 hr by SRB assay; conditions: OVCAR-8, 48 h
OVCAR-5 = assay: Cytotoxicity against Homo sapiens (human) OVCAR5 cells after 48 hr by SRB assay; conditions: OVCAR-5, 48 h
OVCAR-4 = assay: Cytotoxicity against Homo sapiens (human) OVCAR4 cells after 48 hr by SRB assay; conditions: OVCAR-4, 48 h
UACC-62 = assay: Cytotoxicity against Homo sapiens (human) UACC62 cells after 48 hr by SRB assay; conditions: UACC-62, 48 h
UACC-257 = assay: Cytotoxicity against Homo sapiens (human) UACC257 cells after 48 hr by SRB assay; conditions: UACC-257, 48 h
SK-MEL-2 = assay: Cytotoxicity against Homo sapiens (human) SK-MEL-2 cells after 48 hr by SRB assay; conditions: SK-MEL-2, 48 h
SK-MEL-28 = assay: Cytotoxicity against Homo sapiens (human) SK-MEL-28 cells after 48 hr by SRB assay; conditions: SK-MEL-28, 48 h
[3] = Cytotoxicity against Homo sapiens (human) breast cancer cells after 48 hr by SRB assay; conditions: Cancer cell lines
[4] = Cytotoxicity against Homo sapiens (human) renal cancer cells after 48 hr by SRB assay; conditions: Cancer cell lines
[5] = Cytotoxicity against Homo sapiens (human) ovarian cancer cells after 48 hr by SRB assay; conditions: Cancer cell lines
[6] = Cytotoxicity against Homo sapiens (human) melanoma cells after 48 hr by SRB assay; conditions: Melanoma cell
[7] = Cytotoxicity against Homo sapiens (human) CNS cancer cells after 48 hr by SRB assay; conditions: Cancer cell lines
NCI-H460 [8] = assay: Cytotoxicity against Homo sapiens (human) NCI-H460 cells assessed as cellular growth after 48 hr by Alamar blue assay; design: concentration or dose not given beside the values
[9] = Cytotoxicity against Homo sapiens (human) leukemia cells after 48 hr by SRB assay; conditions: Leukemia cell
SF-268 [10] = assay: Cytotoxicity against Homo sapiens (human) SF268 cells assessed as cellular growth after 48 hr by Alamar blue assay; design: concentration or dose not given beside the values
BT-549 = assay: Cytotoxicity against Homo sapiens (human) BT549 cells after 48 hr by SRB assay; conditions: BT-549, 48 h
T47D = assay: Cytotoxicity against Homo sapiens (human) T47D cells after 48 hr by SRB assay
SNB-19 = assay: Cytotoxicity against Homo sapiens (human) SNB19 cells after 48 hr by SRB assay; conditions: SNB-19, 48 h
SF-539 = assay: Cytotoxicity against Homo sapiens (human) SF539 cells after 48 hr by SRB assay; conditions: SF-539, 48 h
SF-295 = assay: Cytotoxicity against Homo sapiens (human) SF295 cells after 48 hr by SRB assay; conditions: SF-295, 48 h
SW-620 = assay: Cytotoxicity against Homo sapiens (human) SW620 cells after 48 hr by SRB assay; conditions: SW-620, 48 h
SF-268 [11] = assay: Cytotoxicity against Homo sapiens (human) SF268 cells after 48 hr by SRB assay; conditions: SF-268, 48 h
KM12 = assay: Cytotoxicity against Homo sapiens (human) KM12 cells after 48 hr by SRB assay; conditions: KM12, 48 h
HCT-15 = assay: Cytotoxicity against Homo sapiens (human) HCT15 cells after 48 hr by SRB assay; conditions: HCT-15, 48 h
HT-29 = assay: Cytotoxicity against Homo sapiens (human) HT-29 cells after 48 hr by SRB assay; conditions: HT-29, 48 h
NCI-H522 = assay: Cytotoxicity against Homo sapiens (human) NCI-H522 cells after 48 hr by SRB assay; conditions: NCI-H522, 48 h
COLO 205 = assay: Cytotoxicity against Homo sapiens (human) COLO205 cells after 48 hr by SRB assay; conditions: COLO 205, 48 h
[12] = Cytotoxicity against Homo sapiens (human) NCI-H322 cells after 48 hr by SRB assay; conditions: NCI-H322, 48 h
NCI-H460 [13] = assay: Cytotoxicity against Homo sapiens (human) NCI-H460 cells after 48 hr by SRB assay; conditions: NCI-H460, 48 h
HOP-92 = assay: Cytotoxicity against Homo sapiens (human) HOP92 cells after 48 hr by SRB assay; conditions: HOP-92, 48 h
EKVX = assay: Cytotoxicity against Homo sapiens (human) EKVX cells after 48 hr by SRB assay
HOP-62 = assay: Cytotoxicity against Homo sapiens (human) HOP62 cells after 48 hr by SRB assay; conditions: HOP-62, 48 h
RPMI-8226 = assay: Cytotoxicity against Homo sapiens (human) RPMI8226 cells after 48 hr by SRB assay; conditions: RPMI-8226, 48 h
CCRF-CEM = assay: Cytotoxicity against Homo sapiens (human) CCRF-CEM cells after 48 hr by SRB assay
MCF7 [14] = assay: Cytotoxicity against Homo sapiens (human) MCF7 cells assessed as cellular growth after 48 hr by Alamar blue assay; design: concentration or dose not given beside the values

Structure (SMILES): O=S(=O)(NC(=S)Nc1ccccc1)c1ccc(N2N=C3c4ccccc4CC3C2c2cccs2)cc1 (stereo unspecified)
- GI50 (MDA-MB-435): 19.4 µM
- GI50 (Hs-578T): 20.9 µM
- GI50 (MCF7 [1]): 3.1 µM
- GI50 (DU-145): 17.8 µM
- GI50 (UO-31): 51.2 µM
- GI50 (RXF 393): 78.1 µM
- GI50 (SN12C): 21.4 µM
- GI50 (CAKI-1): 18.5 µM
- GI50 (ACHN): 26.4 µM
- GI50 (786-0): 19.7 µM
- GI50 [2]: 19.3 µM
- GI50 (SK-OV-3): 49.5 µM
- GI50 (OVCAR-8): 39 µM
- GI50 (OVCAR-5): 17.9 µM
- GI50 (OVCAR-4): 69.8 µM
- GI50 (UACC-62): 18.5 µM
- GI50 (UACC-257): 29.1 µM
- GI50 (SK-MEL-2): 55.9 µM
- GI50 (SK-MEL-28): 53.8 µM
- GI50 [3]: 30.8 µM
- TGI [3]: 57.3 µM
- GI50 [4]: 32.5 µM
- TGI [4]: 47 µM
- GI50 [5]: 43 µM
- TGI [5]: 81.3 µM
- GI50 [6]: 32.2 µM
- TGI [6]: 68.4 µM
- GI50 [7]: 34 µM
- TGI [7]: 77.5 µM
- Activity (NCI-H460 [8]): <=32%
- GI50 [9]: 27.4 µM
- TGI [9]: 85 µM
- Activity (SF-268 [10]): <=32%
- GI50 (BT-549): 24.6 µM
- GI50 (T47D): > 100 µM
- GI50 (SNB-19): 33.8 µM
- GI50 (SF-539): 22.7 µM
- GI50 (SF-295): 18.9 µM
- GI50 (SW-620): 30 µM
- GI50 (SF-268 [11]): 30.7 µM
- GI50 (KM12): 21.5 µM
- GI50 (HCT-15): 22.6 µM
- GI50 (HT-29): 36.2 µM
- GI50 (NCI-H522): 32.8 µM
- GI50 (COLO 205): 41.9 µM
- GI50 [12]: 56.6 µM
- GI50 (NCI-H460 [13]): 24.6 µM
- GI50 (HOP-92): 24.9 µM
- GI50 (EKVX): 19.5 µM
- GI50 (HOP-62): 20.3 µM
- GI50 (RPMI-8226): 30.3 µM
- GI50 (CCRF-CEM): 30.5 µM
- Activity (MCF7 [14]): <=32%

Structure (SMILES): O=C1CS/C(=N\S(=O)(=O)c2ccc(N3N=C4c5ccccc5CC4C3c3cccs3)cc2)N1C(=O)c1ccccc1 (stereo unspecified)
- GI50 (MDA-MB-435): 37.4 µM
- GI50 (Hs-578T): 25.3 µM
- GI50 (MCF7 [1]): > 100 µM
- GI50 (DU-145): 38.2 µM
- GI50 (UO-31): > 100 µM
- GI50 (RXF 393): 63.9 µM
- GI50 (SN12C): 90.7 µM
- GI50 (CAKI-1): 39 µM
- GI50 (ACHN): 23.6 µM
- GI50 (786-0): 48.8 µM
- GI50 [2]: > 100 µM
- GI50 (SK-OV-3): > 100 µM
- GI50 (OVCAR-8): 45.7 µM
- GI50 (OVCAR-5): 32.2 µM
- GI50 (OVCAR-4): > 100 µM
- GI50 (UACC-62): 23.2 µM
- GI50 (UACC-257): > 100 µM
- GI50 (SK-MEL-2): > 100 µM
- GI50 (SK-MEL-28): > 100 µM
- GI50 [3]: 63 µM
- TGI [3]: > 100 µM
- GI50 [4]: 59.4 µM
- TGI [4]: 99.1 µM
- GI50 [5]: 60.9 µM
- TGI [5]: > 100 µM
- GI50 [6]: 73.3 µM
- TGI [6]: > 100 µM
- GI50 [7]: 64.9 µM
- TGI [7]: > 100 µM
- Activity (NCI-H460 [8]): <=32%
- GI50 [9]: 31.2 µM
- TGI [9]: 84.5 µM
- Activity (SF-268 [10]): <=32%
- GI50 (BT-549): 33.5 µM
- GI50 (T47D): > 100 µM
- GI50 (SNB-19): 77 µM
- GI50 (SF-539): 44.6 µM
- GI50 (SF-295): 31.7 µM
- GI50 (SW-620): 38.5 µM
- GI50 (SF-268 [11]): > 100 µM
- GI50 (KM12): 21.4 µM
- GI50 (HCT-15): 56.3 µM
- GI50 (HT-29): 76 µM
- GI50 (NCI-H522): 60.1 µM
- GI50 (COLO 205): 51 µM
- GI50 [12]: 16.6 µM
- GI50 (NCI-H460 [13]): > 100 µM
- GI50 (HOP-92): 37.3 µM
- GI50 (EKVX): 42.4 µM
- GI50 (HOP-62): 32.9 µM
- GI50 (RPMI-8226): 34 µM
- GI50 (CCRF-CEM): 37.5 µM
- Activity (MCF7 [14]): <=32%
